Measured values from patent US20060199230A1, “Use of prostate specific antigen to predict drug response” (Hybritech Incorporated, priority 2005, published 2006).

Legend:
[1] = tested on: total PSA, proPSA, free PSA and BPSA in serum; test: Serum PSA forms at Time 0 and 1 month of dutasteride treatment; drug response = prostate volume decrease of 10% or more at 12 months (Example I); format: in vivo, men
Procedure: (§1) A cohort of serum samples from men greater or equal to 50 years of age with BPH were used. The PSA range was from 1.5 to 10 ng/ml (median 3.2 ng/ml). International Prostate Symptom Score (IPSS) upon entry were 11-32 (moderate to severe, median 18.5). The median Qmax (urine flow rate in cc per second) was 9.3. Men received TRUS for prostate volume at time 0 and then received dutasteride in a blinded fashion at a rate of 0.5 mg per day. Serum was obtained at 0, 1, 3, and 12 months and was assayed for total PSA, proPSA, free PSA and BPSA. IPSS symptom scores were determined at 0, 1 and 12 months. Additional TRUS for prostate volume was performed at 12 months after the start of drug treatment.
Serum from placebo and drug-treated men were tested for levels of PSA forms at Time 0 (pretreatment baseline), and at 1, 3 and 12 months after the start of placebo or drug treatment. […] In this plot, the decrease in prostate volume by 10% or more was used as the definition of drug response.

[2] = tested on: total PSA, proPSA, free PSA and BPSA in serum; test: Serum PSA forms at Time 0 and 1 month of dutasteride treatment; drug response = IPSS decrease of 2 or more at 12 months (Example II); format: in vivo, men
Procedure: as §1
The concentrations of total PSA, free PSA, proPSA, and BPSA were examined at Time 0 (pretreatment baseline) and at 1 month after drug treatment. Drug response was defined as men who had improvement (decrease) in their IPSS of equal to 2 or greater after 12 months of treatment. […] The increases in the ratio of BPSA to total PSA and the ratio of BPSA to free PSA were also highly significant.
Another method of determining a cutoff for clinical utility is to calculate the Odds Ratio of a response to drug treatment at 12 months, based on the percentage change in a measured parameter at 1 month. In this case, the odds of responding to the drug (drop of 2 or more in the IPSS at 12 months) increases with increasing ratio of BPSA to proPSA at 1 month. […] With a >250% increase of BPSA to proPSA ratio over baseline at 1 month, there is at least a 2-fold increase in the odds of having a drug response at 12 months. An Odds Ratio of at least 2 is the preferred embodiment of the invention. Using Odds Ratio as a means to set a cutoff for the increase in the ratio of BPSA to proPSA would have a preferred cutoff of 250%.

[3] = about 1 month after drug administration, men with 10% or greater decrease in prostate volume at 12 months
[4] = median after 1 month of drug, 0.5 mg per day, men with decrease of 10% or more in prostate volume at 12 months
[5] = median, pretreatment baseline, drug-treated men with decrease of 10% or more in prostate volume at 12 months
[6] = Table 3, samples with a decrease of 2 or more in IPSS
[7] = about 1 month, IPSS reduction of 2 or greater at 12 months as drug response
[8] = median after 1 month of drug, 0.5 mg per day, men with improvement in IPSS of 2 or more at 12 months
[9] = median, pretreatment baseline, drug-treated men with improvement in IPSS of 2 or more at 12 months

Question: For `C[C@]12C=CC(=O)N[C@@H]1CC[C@@H]1[C@@H]2CC[C@]2(C)[C@@H](C(=O)Nc3cc(C(F)(F)F)ccc3C(F)(F)F)CC[C@@H]12` [dutasteride], which “total PSA and free PSA levels at 3 months” value ([1]; 3 months of drug treatment) is on record?
Answer: the levels decrease at 3 months

Question: And the “decrease in proPSA” value [1, 3]?
Answer: 48%

Question: What about the “increase in BPSA” value [1, 3] of the same compound?
Answer: 86%

Question: And the “increase of the ratio of BPSA to PSA” value [1, 3]?
Answer: 78%

Question: What about the “increase of the ratio of BPSA to free PSA” value [1, 3] of the same compound?
Answer: 52%

Question: And the “increase of the ratio of BPSA to proPSA over the baseline ratio” value [1, 3]?
Answer: 450%

Question: What about the “change in total PSA, free PSA, or the ratio of free to total PSA at 1 month” value ([1]; drug responders: decrease in prostate volume by 10% or more after 12 months) of the same compound?
Answer: no significant change

Question: What about the “change in BPSA at 1 month in drug non-responders” value ([1]; drug-treated men with less than 10% decrease in prostate volume at 12 months) of the same compound?
Answer: no significant increase

Question: What about the “BPSA, 1 Month” value [1, 4] of the same compound?
Answer: 0.186 ng/mL

Question: And the “BPSA/free PSA, 1 Month” value [1, 4]?
Answer: 0.230

Question: What about the “BPSA/proPSA, 1 Month” value [1, 4] of the same compound?
Answer: 2.26

Question: And the “BPSA/total PSA, 1 Month” value [1, 4]?
Answer: 0.050

Question: What about the “Free PSA, 1 Month” value [1, 4] of the same compound?
Answer: 0.76 ng/mL

Question: And the “Free PSA/total PSA, 1 Month” value [1, 4]?
Answer: 0.214

Question: What about the “Total PSA, 1 Month” value [1, 4] of the same compound?
Answer: 3.14 ng/mL

Question: What about the “proPSA, 1 Month” value [1, 4] of the same compound?
Answer: 0.097 ng/mL

Question: What about the “BPSA, Time 0” value [1, 5] of the same compound?
Answer: 0.100 ng/mL

Question: What about the “BPSA/free PSA, Time 0” value [1, 5] of the same compound?
Answer: 0.151

Question: What about the “BPSA/proPSA, Time 0” value [1, 5] of the same compound?
Answer: 0.499

Question: What about the “BPSA/total PSA, Time 0” value [1, 5] of the same compound?
Answer: 0.028

Question: What about the “Free PSA, Time 0” value [1, 5] of the same compound?
Answer: 0.70 ng/mL

Question: What about the “Free PSA/total PSA, Time 0” value [1, 5] of the same compound?
Answer: 0.204

Question: And the “Total PSA, Time 0” value [1, 5]?
Answer: 3.02 ng/mL

Question: What about the “proPSA, Time 0” value [1, 5] of the same compound?
Answer: 0.204 ng/mL

Question: And the “BPSA level at three months vs baseline” value ([1]; three months after the start of drug administration, FIG. 1)?
Answer: decline below the baseline level

Question: And the “BPSA, median value at 1 month, Drug” value [2, 6]?
Answer: 0.091, 0.151 ng/ml

Question: What about the “BPSA/free PSA, median value at 1 month, Drug” value [2, 6] of the same compound?
Answer: 0.228

Question: What about the “BPSA/total PSA, median value at 1 month, Drug” value [2, 6] of the same compound?
Answer: 0.032, 0.046

Question: And the “Free PSA, median value at 1 month, Drug” value [2, 6]?
Answer: 0.62, 0.67 ng/ml

Question: And the “Free PSA/total PSA, median value at 1 month, Drug” value [2, 6]?
Answer: 0.22, 0.21

Question: What about the “Total PSA, median value at 1 month, Drug” value [2, 6] of the same compound?
Answer: 3.00, 3.08 ng/ml

Question: And the “decrease in proPSA” value [2, 7]?
Answer: 41%

Question: What about the “increase in BPSA to proPSA ratio over baseline” value [2, 7] of the same compound?
Answer: 230%

Question: What about the “increase in BPSA/free PSA ratio” value [2, 7] of the same compound?
Answer: 44%

Question: What about the “increase in BPSA/total PSA ratio” value [2, 7] of the same compound?
Answer: 59%

Question: And the “increase in BPSA” value ([2]; about 1 month, IPSS reduction of 2 or greater at 12 months as drug response, not significant)?
Answer: 25%

Question: What about the “BPSA, 1 Month” value [2, 8] of the same compound?
Answer: 0.151 ng/mL

Question: And the “BPSA/free PSA, 1 Month” value [2, 8]?
Answer: 0.228

Question: And the “BPSA/proPSA, 1 Month” value [2, 8]?
Answer: 1.32

Question: What about the “BPSA/total PSA, 1 Month” value [2, 8] of the same compound?
Answer: 0.046

Question: And the “Free PSA, 1 Month” value [2, 8]?
Answer: 0.67 ng/mL

Question: And the “Free PSA/total PSA, 1 Month” value [2, 8]?
Answer: 0.21

Question: What about the “Total PSA, 1 Month” value [2, 8] of the same compound?
Answer: 3.14 ng/mL

Question: What about the “proPSA, 1 Month” value [2, 8] of the same compound?
Answer: 0.103 ng/mL

Question: And the “BPSA, Time 0” value [2, 9]?
Answer: 0.120 ng/mL

Question: What about the “BPSA/free PSA, Time 0” value [2, 9] of the same compound?
Answer: 0.158

Question: What about the “BPSA/proPSA, Time 0” value [2, 9] of the same compound?
Answer: 0.584

Question: What about the “BPSA/total PSA, Time 0” value [2, 9] of the same compound?
Answer: 0.029

Question: And the “Free PSA, Time 0” value [2, 9]?
Answer: 0.77 ng/mL

Question: What about the “Free PSA/total PSA, Time 0” value [2, 9] of the same compound?
Answer: 0.19

Question: What about the “Total PSA, Time 0” value [2, 9] of the same compound?
Answer: 3.68 ng/mL

Question: And the “proPSA, Time 0” value [2, 9]?
Answer: 0.253 ng/mL

Question: And the “difference in any PSA-related parameter, Time 0 vs 1 month, drug non-responders” value ([2]; men with IPSS improvement of less than 2)?
Answer: None of the placebo samples, or the men with IPSS improvement of less than 2 (drug non-responders), showed statistically a significant difference
